In patent US20190337971A1, “PANTETHEINE DERIVATIVES FOR THE TREATMENT OF NEUROLOGIC DISORDERS” (Retrophin, Inc., priority 2016, published 2019):

How the values were obtained:
PANK2−/− IMR32 cells = assay: Coenzyme A assay in PANK2 silenced cells (LC-MS quantification of free CoA); assay type: cell-based, human; conditions: Homo sapiens, IMR-32; compound concentration 50 uM; fold increase in CoA levels relative to controls; treated twice, 24 h + 24 h
[1] = Stability of compounds in human hepatocytes; assay type: in vitro ADME; conditions: cryopreserved human hepatocytes in suspension, 37° C., 0-240 min
Method: (§1) Stability in hepatocytes for select compounds disclosed in the application was evaluated in two species (mouse and human) according to the following procedure. Compounds and positive control samples were dissolved in 100% DMSO at 5 mM. Cryopreserved hepatocytes were thawed and resuspended in Hepatocyte Basal Medium (HBM-Lonza CC-3199) supplemented with CC-4182 (complete hepatocyte culture medium). Test compounds were diluted into cell suspension (1 million cells/ml) from the stock solutions to have a test compound concentration of 5 μM (0.1% DMSO). Incubation was performed in 24-well plates, at 37° C. in a DUBNOFF water bath, under low shaking. Each compound was tested at 6 time points, in duplicates (0, 15, 30, 60, 120, and 240 min). At each time point, an aliquot of 120 μl was taken and transferred to a 96-well deep plate. The reaction was stopped with the addition of one volume of 100% acetonitrile plus 0.1% formic acid and the appropriate internal standard. Samples then were centrifuged at 1100×g for 30 min at +4° C. and supernatants were transferred to a new 96-deepwell plate. Samples were evaporated under N2 and reconstituted in H2O/ACN 0.1% formic Acid (98:2). Analysis was performed without a calibration curve (Acquity UPLC-Waters; Sciex API4000). Time 0 was obtained adding acetonitrile before addition of the test compound. Stability was determined based on analysis of disappearance of the compounds as a function of incubation time. Quantification of test compounds was measured as a peak area relative to an internal standard. The elimination constant, k, is calculated by plotting mean disappearance values on a semi-logarithmic scale and fitting with a best fit linear regression. The half-life (t1/2) expressed in hours was derived using Equation 1:
(§2) t1/2=ln 2/(−k). Equation 1: […]

[2] = Stability of compounds in mouse hepatocytes; assay type: in vitro ADME; conditions: cryopreserved mouse hepatocytes in suspension, 37° C., 0-240 min
Method: as §1, §2

[3] = Diastereoisomer A (upfield shift in 31P NMR), read-out: t1/2 (h) Human Hepatocytes Diastereoisomer A (converted)
[4] = Diastereoisomer B, read-out: t1/2 (h) Human Hepatocytes Diastereoisomer B (converted)
[5] = Diastereoisomer A (upfield shift in 31P NMR), read-out: t1/2 (h) Mouse Hepatocytes Diastereoisomer A (converted)
[6] = Diastereoisomer B, read-out: t1/2 (h) Mouse Hepatocytes Diastereoisomer B

Row | Compound | fold induction at 50 µM (PANK2−/− IMR32 cells) | half-life at 5 μM [1, 3] | half-life at 5 μM [1, 4] | half-life at 5 μM [2, 5] | half-life at 5 μM [2, 6]
1 | CC(=O)SCCNC(=O)CCNC(=O)[C@@H]1OP(=O)(OCOC(=O)c2cc(C)nn2C)OCC1(C)C (stereo partly drawn) [R1007, (((4R)-4-((3-((2-(acetylthio)ethyl)amino)-3-oxopropyl)carbamoyl)-5,5-dimethyl-2-oxido-1,3,2-dioxaphosphinan-2-yl)oxy)methyl 1,3-dimethyl-1H-pyrazole-5-carboxylate] | 109 | 0.25 h | 0.21 h | < 0.25 h | < 0.25 h
2 | CC(=O)SCCNC(=O)CCNC(=O)[C@@H]1OP(=O)(OCOC(=O)c2scnc2C)OCC1(C)C (stereo partly drawn) [R1006, (((4R)-4-((3-((2-(acetylthio)ethyl)amino)-3-oxopropyl)carbamoyl)-5,5-dimethyl-2-oxido-1,3,2-dioxaphosphinan-2-yl)oxy)methyl 4-methylthiazole-5-carboxylate] | 117 | 0.42 h | 0.35 h | 0.31 h | < 0.25 h
